Here are results for two compounds from patent US6124306A, “Thioalkyl alpha substituted pyrimidine compounds” (Pharmacia & Upjohn Company, priority 1998, dated 2000).

Test [1] deals with MF-delavirdine (P236L). Description: Antiviral activity in MT4 cells, HIV-1 p24 core antigen quantitation. The note with it: Human immunodeficiency virus 1, MT4, 96 h, read-out: MF-delavirdine (P236L) IC90 (μM). It is filed as cell-based. The procedure: (§1) Assessment of the antiviral activities of the Compounds 1 and 290 versus the panel of viruses used in these studies was carried out in MT4 cells. Cells were batch infected with the appropriate virus stock at a multiplicity of infection of 0.001-0.005 TCID50 per cell for 2 hours at 37° C. The cells were washed, resuspended in RPMI/FBS and plated in 24 well dishes at a final concentration of 1.5×10^5 cells/ml to which were added 2× drug treatments prepared in RPMI/FBS. All treatment concentrations were tested in duplicate. The final DMSO concentration for all treatments or vehicle control cultures was 0.1%. At four days post-infection culture fluid samples were collected for HIV-1 p24 core antigen quantitation to determine antiviral effects. Linear regression analysis was used to calculate the drug concentration necessary to inhibit 90% (inhibitory concentration 90, IC90) of non-drug treated p24 antigen production.

For test [2], the system named is IIIB-WT. The test is described as above. In kind it is cell-based. Conditions: Human immunodeficiency virus 1, IIIB, 96 h, infection 0.001-0.005 TCID50 per cell, p24 antigen at four days post-infection, concentration inhibiting 90% of p24 production. The procedure:
as §1

The structures appear in SMILES notation.

In the case of `CSc1cc(N)nc(S[C@@H](C)c2cc3ccoc3cn2)n1` [Compound #1], the IC90 – broadly, the point of the concentration-response curve where the effect stands at 90% – was 0.02 µM in test [1] and 8 nM in test [2].
The matching figures for `CSc1cc(N)nc(S[C@@H](C)c2cc3c(C)coc3cn2)n1` [Compound #290, (S)-(-)-4-Amino-6-methylthio-2-(1-(3-methylfuro[2,3-c]pyridine-5-yl)ethyl)thio-pyrimidine]: 0.02 µM and 4 nM.
